In general, Emax refers to the greatest response seen or fitted, relative to the assay's reference. One may read the EC50 as the concentration giving half of the maximal effect. Usually Ki stands for the dissociation constant of the complex between target and ligand, obtained from inhibition or displacement.

Our source for the Emax, EC50 and Ki values is patent US7928099B2, “Pyrimido [4,5-D] azepine derivatives as 5-HT2c agonists” (Pfizer Inc, priority 2007, dated 2011).

Counter-ions that a name gives are not always drawn.

Experiment [1] concerns the target T1, human recombinant 5-HT2c receptor (Homo sapiens, UniProt P28335).
T1 construct: expressed in transfected cells; host or cells: CHO K1 (Chinese hamster ovary), stably transfected
T1 sequence (P28335 33-458): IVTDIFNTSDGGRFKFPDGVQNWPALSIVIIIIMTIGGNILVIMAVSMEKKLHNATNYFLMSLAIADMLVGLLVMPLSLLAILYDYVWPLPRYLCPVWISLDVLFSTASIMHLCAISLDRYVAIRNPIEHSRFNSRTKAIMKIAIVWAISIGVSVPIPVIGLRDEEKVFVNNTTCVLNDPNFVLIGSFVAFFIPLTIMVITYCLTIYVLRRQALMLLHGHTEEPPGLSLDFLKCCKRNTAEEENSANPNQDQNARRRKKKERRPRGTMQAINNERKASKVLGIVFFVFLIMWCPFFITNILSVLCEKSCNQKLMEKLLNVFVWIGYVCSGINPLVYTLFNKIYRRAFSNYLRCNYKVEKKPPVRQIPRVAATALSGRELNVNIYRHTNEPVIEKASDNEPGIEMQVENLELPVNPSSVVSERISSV
The experiment is described as follows: FLIPR fluorescent Ca2+ mobilisation agonist assay in CHO K1 cells (Method 1). In kind it is cell-based. The settings on record: for Emax: CHO-K1, efficacy, percentage of mean maximal response to 10 μM 5-HT; for EC50: agonist affinity, FLIPR. The procedure:
(§1) The compounds of the invention were evaluated for biological activity by measuring the agonist affinity (EC50) and efficacy (Emax) at the human recombinant 5-HT2c receptor expressed in CHO K1 cells, using a fluorescent based Ca^2+ mobilisation assay format compatible with FLIPR technology (Method 1). Additionally, the binding activity of a compound was determined by measuring its affinity for the human recombinant 5-HT2c receptor membranes from Swiss 3T3 cells (Method 2).
The agonist affinity of the compounds were tested by measuring their ability to induce a fluorescent based Ca^2+ mobilization signal in a FLIPR assay using CHO K1 cells expressing recombinant human 5-HT2C receptor. Both agonist affinity (EC50) and efficacy (Emax) were determined.
Chinese hamster ovary cells (CHO K1) stably transfected with the 5-HT2c receptor were cultured under standard cell culture techniques. Specifically, cells were grown at 37° C. and 5% CO2 in Dulbecco's Modified Eagle's Medium (DMEM) culture media supplemented with 10% dialysed foetal calf serum (FCS), 1% non-essential amino acids, 1 mM sodium pyruvate, 800 μg/mL geneticin and 50 μg/ml zeocin. Cells were harvested for passaging and storage using trypsin-EDTA, centrifugation and resuspension in culture medium. Cells were grown to 60-80% confluency, harvested and adjusted to 15-20×10^6 cells/ml/vial in medium/10% DMSO and stored long-term at −80° C.
Cells were seeded into black-walled clear-bottomed 384 well plates 24 h before use. Frozen cells were defrosted in a 37° C. water bath and immediately transferred into 1 mL/vial 37° C. culture medium, diluted to 10 ml and DMSO removed by centrifugation. The cells were resuspended in 15 ml/vial of cell culture medium, counted and adjusted to give 500,000 cells/mL (10,000 cells/well). […] of cell suspension was added to the 384 well plates which were then incubated overnight at 37° C.
The maximum agonist response was determined with 5-HT at a final assay concentration of 10 μM in the diluent above. The minimum response was determined with Dulbeccos PBS (+CaCl2, +MgCl2) with 0.9% DMSO and 0.05% pluronic F-127. Test compounds, maximum and minimum controls were added to a 384 well polypropylene plate.
The FLIPR calcium assay reagent was diluted with assay buffer (Hank's Balanced Salt Solution (HBSS))/20 mM HEPES and 2.5 mM probenecid (diluted with 1M Sodium hydroxide and DPBS (+CaCl2, +MgCl2)).
20 μl/well FLIPR calcium assay reagent was added to the cell plates, which were incubated for 1 h at 37° C. Cell plates and compound plates were then transferred onto the FLIPR. The assay was run using the appropriate FLIPR program, which initiates the reaction by transferring 15 μL compound into the corresponding, well of the cell plate.
The statistical parameter exported from each well was the max peak height of the response.
Background: Calcium assays in cells follow changes in intracellular calcium, usually with a dye or a luminescent sensor.

Experiment [2] deals with T1, human recombinant 5-HT2c receptor. Nature of the experiment: 3H-meselurgine radioligand binding SPA, membranes from Swiss 3T3 cells (Method 2). As to conditions: 3H-meselurgine displacement, Cheng-Prusoff; Swiss 3T3 membranes; read-out: Binding Affinity Ki. The procedure:
as §1
The compounds were tested for biological activity by their ability to inhibit binding of the radioligand ^3H-meselurgine at the human recombinant 5-HT2C receptor expressed in the Swiss 3T3 cells using a scintillation proximity assay (SPA) technology.
Swiss 3T3 stably transfected with the 5-HT2C receptor were cultured under standard cell culture techniques. Specifically, cells were grown in 50 mL growth medium (Dulbecco's Modified Eagle's Medium (DMEM) culture media supplemented with 10% dialysed foetal calf serum (FCS), 2 mM penicillin/streptomycin and 20 μg/mL geneticin) in 225 cm^2 flasks at 37° C. and 5% CO2. Cells were grown to 60-80% confluency, harvested using trypsin-EDTA and pelleted by centrifugation for long-term storage at −80° C.
Cell pellets were thawed on ice and resuspended in 3 mL of membrane preparation buffer (see Media and Buffers for composition) per 1 mL of packed cell. The suspension was homogenised on ice for several 5 s intervals using a hand-held homogeniser. The homogenate was then centrifuged at 1,000 rpm for 5 min at 4° C.
The supernatants were then collected and retained. Initial cell & nuclei pellets (P1) were subsequently rehomogenised and centrifuged using the conditions cited above, and the supernatants collected and pooled with those retained from the first spin.
The pooled supernatants were centrifuged at 19,500 rpm for 45 min at 4° C., and the supernatants discarded. The pellets (P2) were then resuspended in 3 mL of membrane preparation buffer per 1 mL of the original packed cell volume. Protein concentrations were subsequently measured and the membrane suspension was finally frozen in aliquots of set volume and stored at −80° C. prior to use in assays.
For each batch of membrane used, optimal concentrations of Polylysine YSi SPA beads and membrane were determined. The assay free radioligand concentration was expressed as a percentage of the total free radioligand concentration to give an estimate of the radioligand depletion.
The affinity of ^3H-meselurgine for the human recombinant 5-HT2c receptor was determined for each membrane batch at the selected protein and bead concentrations. […] The mean KD for ^3H-meselurgine at a batch of membranes was determined from data from a minimum of three separate assays.
The required amount of membrane, was thawed on ice and added to a pre-determined volume of bead suspension in 50 mM HEPES buffer, pH 7.4. The beads were then pre-coupled by incubating the predetermined protein quantity per mg of bead on a roller 4° C. for 1 h. Subsequently, the bead/membrane complex was spun down at 1000 rpm for 5 min. The resulting pellet was resuspended in assay buffer at the specific concentration required for the final assay.
An aliquot of [^3H]-meselurgine stock was diluted in binding assay buffer to give a pre-determined final assay concentration less than the equilibrium dissociation constant (KD) value.
All test compounds were prepared at a concentration of 4 mM in 100% dimethyl sulphoxide (DMSO) from dry samples.
The same volume of assay buffer was added to specific wells of the plate to enable subsequent measurement of total radioligand binding. Furthermore, 5 μL of Mianserin at 25 μM (2.5 μM final assay concentration was subsequently added to pre-determined wells to determine non-specific binding (NSB).

Turning to `OC1CCCN(c2nc(Cc3ccccc3)nc3c2CCNCC3)C1` (stereo not drawn) [Example 18, 1-(2-benzyl-6,7,8,9-tetrahydro-5H-pyrimido[4,5-d]azepin-4-yl)piperidin-3-ol hydrochloride], in experiment [1], the Emax came out at 51.3% and the EC50 worked out at 558 nM. In experiment [2], the inhibitory constant (Ki) was 243 nM.

Take `c1ccc(Cc2nc3c(c(-n4cccn4)n2)CCNCC3)cc1` [Example 1, 2-Benzyl-4-(1H-pyrazol-1-yl)-6,7,8,9-tetrahydro-5H-pyrimido[4,5-d]azepine]: in experiment [1], the maximum response (Emax) was found to be 83.5% and the concentration for a half-maximal effect (EC50) is 224 nM. Besides, in experiment [2], the Ki was 72 nM.

Turning to `CC(CO)Nc1nc(Cc2ccccc2)nc2c1CCNCC2` (stereo not drawn) [Example 33, 2-[(2-benzyl-6,7,8,9-tetrahydro-5H-pyrimido[4,5-d]azepin-4-yl)amino]propan-1-ol hydrochloride], in experiment [1], the Emax came to 58.5% and the EC50 came to 424 nM. In addition, the Ki in experiment [2] worked out at 125 nM.

For the compound `c1ccc(Cc2nc3c(c(-n4ccnc4)n2)CCNCC3)cc1` [Example 55, 2-Benzyl-4-imidazol-1-yl-6,7,8,9-tetrahydro-5H-pyrimido[4,5-d]azepine], in experiment [1], the Emax stood at 72.6% and the concentration giving a half-maximal response (EC50) was 263 nM. The inhibition constant (Ki) in experiment [2] was determined as 380 nM.

Consider `CC(C)(c1ccccc1)c1nc2c(c(N3CCOCC3)n1)CCNCC2` [Example 11, 2-(1-Methyl-1-phenylethyl)-4-morpholin-4-yl-6,7,8,9-tetrahydro-5H-pyrimido[4,5-d]azepine], for which, in experiment [1], the maximum response (Emax) was found to be 75.2% and the EC50 came to 884 nM. For the same compound, in experiment [2], the Ki is 73.5 nM.

Consider `OC1(CNc2nc(Cc3ccccc3)nc3c2CCNCC3)CCC1` [Example 41, 1-{[(2-benzyl-6,7,8,9-tetrahydro-5H-pyrimido[4,5-d]azepin-4-yl)amino]methyl}cyclobutanol hydrochloride], for which, in experiment [1], the Emax worked out at 74.7% and the EC50 came to 57 nM. In addition, the inhibition constant (Ki) in experiment [2] was 86.9 nM.

On to `c1ccc(Cc2nc3c(c(NCC4CCCO4)n2)CCNCC3)cc1` (stereo not drawn) [Example 19, 2-benzyl-N-(tetrahydrofuran-2-ylmethyl)-6,7,8,9-tetrahydro-5H-pyrimidol[4,5-d]azepin-4-amine hydrochloride], for which, in experiment [1], the Emax worked out at 36.3% and the EC50 amounted to 344 nM. Also, in experiment [2], the Ki was determined as 52.4 nM.

`CCOc1nc(C(C)c2ccccc2)nc2c1CCNCC2` (stereo not drawn) [Example 59, 4-Ethoxy-2-(1-phenylethyl)-6,7,8,9-tetrahydro-5H-pyrimido[4,5-d]azepine]: in experiment [1], the Emax is 33.1% and the EC50 worked out at 107 nM. Moreover, the Ki in experiment [2] amounted to 49.3 nM.

Regarding `c1ccc(Cc2nc3c(c(N4CCCCC4)n2)CCNCC3)cc1` [Example 29, 2-benzyl-4-piperidin-1-yl-6,7,8,9-tetrahydro-5H-pyrimido[4,5-d]azepine hydrochloride], in experiment [1], the Emax was found to be 37.7% and the concentration giving a half-maximal response (EC50) stood at 962 nM. Besides, the Ki in experiment [2] is 177 nM.

Turning to `FC(F)(F)c1cccc(Cc2ncc3c(n2)CCNCC3)c1` [Example 63, 2-[3-(Trifluoromethyl)benzyl]-6,7,8,9-tetrahydro-5H-pyrimido[4,5-d]azepine], in experiment [1], the Emax was 44.1% and the EC50 amounted to 298 nM. Besides, in experiment [2], the inhibition constant Ki stood at 308 nM.

Take `CCCCc1nc(Cc2ccccc2)nc2c1CCNCC2` [Example 69, 2-Benzyl-4-butyl-6,7,8,9-tetrahydro-5H-pyrimido[4,5-d]azepine]: in experiment [1], the maximum response (Emax) was determined as 77.1% and the concentration giving a half-maximal response (EC50) was found to be 274 nM. For the same compound, the inhibition constant (Ki) in experiment [2] is 153 nM.

Regarding `OC1CCN(c2nc(Cc3ccccc3)nc3c2CCNCC3)CC1` [Example 38, 1-(2-benzyl-6,7,8,9-tetrahydro-5H-pyrimido[4,5-d]azepin-4-yl)piperidin-4-ol hydrochloride], in experiment [1], the maximal response (Emax) was 66% and the concentration for a half-maximal effect (EC50) was 336 nM. The Ki in experiment [2] came out at 514 nM.

For the compound `CC(C)(c1ccccc1)c1ncc2c(n1)CCNCC2` [Example 9, 2-(1-Methyl-1-phenylethyl)-6,7,8,9-tetrahydro-5H-pyrimido[4,5-d]azepine], in experiment [1], the Emax is 52.6% and the EC50 is 732 nM. In addition, in experiment [2], the Ki is 401 nM.

On to `c1ccc(Cc2nc3c(c(NC4CCOC4)n2)CCNCC3)cc1` (stereo not drawn) [Example 39, 2-benzyl-N-(tetrahydrofuran-3-yl)-6,7,8,9-tetrahydro-5H-pyrimido[4,5-d]azepin-4-amine hydrochloride], for which, in experiment [1], the Emax came to 30.6% and the concentration for a half-maximal effect (EC50) was found to be 516 nM. The Ki in experiment [2] worked out at 696 nM.

For `CN(C)c1nc(N(C)Cc2ccccc2)nc2c1CCNCC2` [Example 14, N-2-benzyl-N-2,N-4,N-4-trimethyl-6,7,8,9-tetrahydro-5H-pyrimido[4,5,d]azepin-2-amine], in experiment [1], the Emax is 50.8% and the EC50 amounted to 279 nM. Also, the Ki in experiment [2] was found to be 144 nM.

For the compound `c1ccc(Cc2nc3c(c(NCCn4cccn4)n2)CCNCC3)cc1` [Example 27, 2-benzyl-N-[2-(1H-pyrazol-1-yl)ethyl]-6,7,8,9-tetrahydro-5H-pyrimido[4,5-d]azepin-4-amine hydrochloride], in experiment [1], the maximal effect (Emax) was 35% and the EC50 amounted to 57.2 nM. In experiment [2], the inhibition constant Ki is 25.4 nM.

On to `CCNc1nc(N(C)CC)nc2c1CCNCC2` [Example 98, N-2,N-4-diethyl-N-2-methyl-6,7,8,9-tetra-hydro-5H-pyrimido[4,5-d]-azepin-4-amine], for which, in experiment [1], the maximum response (Emax) came to 61.7% and the 50% effective concentration (EC50) was 77 nM. Also, the Ki in experiment [2] came to 16.3 nM.
